# Measured values reported in ChEMBL document CHEMBL4831548, “Sesquiterpene Lactones from Sigesbeckia glabrescens Possessing Potent Anti-inflammatory Activity by Directly Binding to IKKα/β” (J Nat Prod, 2021).
# Activity calls are given as the source filed them. The calls are words filed in the database; no cut-off is given here.
# Tests used:
# [1] = tested on: RAW264.7; assay: Cytotoxicity against mouse RAW264.7 cells assessed as effect on cell viability up to 20 uM measured after 24 hrs by CCK8 assay; assay type: cell-based; details: raw264.7, 24 h
# [2] = tested on: RAW264.7; assay: Inhibition of LPS-induced NO production in mouse RAW264.7 cells preincubated for 2 hrs followed by LPS stimulation for 24 hrs by Griess reagent based assay; assay type: functional, cell-based
# [3] = tested on: RAW264.7; assay: Anti-inflammatory activity against LPS-stimulated mouse RAW264.7 cells assessed as decrease in IL-1 beta production at 3 uM preincubated for 2 hrs followed by LPS stimulation and measured after 24 hrs by ELISA assay; assay type: functional, cell-based; details: time 26.0 hrs
# [4] = tested on: RAW264.7; assay: Anti-inflammatory activity against LPS-stimulated mouse RAW264.7 cells assessed as decrease in IL-6 production at 3 uM preincubated for 2 hrs followed by LPS stimulation and measured after 24 hrs by ELISA assay; assay type: functional, cell-based; details: time 26.0 hrs
# [5] = tested on: RAW264.7; assay: Anti-inflammatory activity against LPS-stimulated mouse RAW264.7 cells assessed as decrease in TNF-alpha production at 3 uM preincubated for 2 hrs followed by LPS stimulation and measured after 24 hrs by ELISA assay; assay type: functional, cell-based; details: time 26.0 hrs
# [6] = tested on: RAW264.7; assay: Inhibition of LPS-induced NO production in mouse RAW264.7 cells at 3 uM incubated for 2 hrs followed by LPS stimulation and measured after 24 hrs by Griess reagent based assay; assay type: functional, cell-based; details: time 26.0 hrs
# [7] = tested on: RAW264.7; assay: Inhibition of LPS-induced PGE2 production in mouse RAW264.7 cells at 3 uM preincubated for 2 hrs followed by LPS stimulation and measured after 24 hrs by ELISA assay; assay type: functional, cell-based; details: time 26.0 hrs
# [8] = Covalent binding affinity to dithiothreitol assessed as compound-DTT adduct formation at 50 uM incubated for 30 mins by UPLC-MS analysis
# [9] = molecular target: T1, Inhibitor of nuclear factor kappa-B kinase subunit alpha/beta (Mus musculus) (UniProt Q60680+O88351); assay: Inhibition of IKKalpha/beta in LPS-stimulated mouse RAW264.7 cells assessed as inhibition of NFkB p65 nuclear translocation at 3 uM preincubated for 2 hrs followed by LPS stimulation for 30 mins by immunoblotting assay; details: time 150.0 min
# [10] = molecular target: T1, Inhibitor of nuclear factor kappa-B kinase subunit alpha/beta (Mus musculus); assay: Inhibition of IKKalpha/beta in LPS-stimulated mouse RAW264.7 cells assessed as inhibition of IkappaB alpha phosphorylation preincubated for 2 hrs followed by LPS stimulation for 5 mins by immunoblot anlaysis; details: dose 0.75-3 µM, time 125.0 min
# [11] = molecular target: T1, Inhibitor of nuclear factor kappa-B kinase subunit alpha/beta (Mus musculus); assay: Inhibition of IKKalpha/beta in LPS-stimulated mouse RAW264.7 cells assessed as inhibition of IkappaB alpha degradation at 3 uM preincubated with DTT for 30 mins and later incubated with cells for 2 hrs followed by LPS stimulation for 10 mins by immunoblot anlaysis; details: time 160.0 min
# [12] = molecular target: c-Jun N-terminal kinase (Mus musculus) (UniProt Q91Y86+Q9WTU6+Q61831); assay: Inhibition of JNK phosphorylation in LPS-induced mouse RAW264.7 cells at 0.75 to 3 uM preincubated for 2 hrs followed by LPS stimulation and measured after 30 mins by immunoblotting assay; details: dose 0.75-3 µM, time 150.0 min
# c-Jun N-terminal kinase (Mus musculus), sequence (Q61831 whole entry, looked up): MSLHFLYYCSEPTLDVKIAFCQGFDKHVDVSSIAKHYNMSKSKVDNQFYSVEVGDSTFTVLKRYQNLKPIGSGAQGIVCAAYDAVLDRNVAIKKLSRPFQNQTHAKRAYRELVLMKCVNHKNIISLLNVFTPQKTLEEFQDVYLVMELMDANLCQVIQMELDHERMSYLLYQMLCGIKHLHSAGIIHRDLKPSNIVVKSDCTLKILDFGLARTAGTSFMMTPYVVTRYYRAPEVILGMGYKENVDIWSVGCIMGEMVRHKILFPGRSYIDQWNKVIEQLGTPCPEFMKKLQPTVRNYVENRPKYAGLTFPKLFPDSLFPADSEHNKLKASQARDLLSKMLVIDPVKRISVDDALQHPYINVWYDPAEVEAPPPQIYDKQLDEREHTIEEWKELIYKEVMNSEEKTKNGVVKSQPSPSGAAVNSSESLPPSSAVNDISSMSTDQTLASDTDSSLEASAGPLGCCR
# c-Jun N-terminal kinase (Mus musculus), sequence (Q91Y86 whole entry, looked up): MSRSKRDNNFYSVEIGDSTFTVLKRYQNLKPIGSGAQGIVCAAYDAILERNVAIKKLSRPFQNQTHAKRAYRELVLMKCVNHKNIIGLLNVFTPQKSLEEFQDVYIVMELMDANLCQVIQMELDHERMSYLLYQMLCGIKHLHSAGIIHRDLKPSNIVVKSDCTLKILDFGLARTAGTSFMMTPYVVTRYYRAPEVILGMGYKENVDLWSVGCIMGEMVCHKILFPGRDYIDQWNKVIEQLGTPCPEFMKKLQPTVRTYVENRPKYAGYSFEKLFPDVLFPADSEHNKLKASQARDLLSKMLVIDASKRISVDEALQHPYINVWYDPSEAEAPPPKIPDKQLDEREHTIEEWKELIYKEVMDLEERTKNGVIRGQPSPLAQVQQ
# c-Jun N-terminal kinase (Mus musculus), sequence (Q9WTU6 whole entry, looked up): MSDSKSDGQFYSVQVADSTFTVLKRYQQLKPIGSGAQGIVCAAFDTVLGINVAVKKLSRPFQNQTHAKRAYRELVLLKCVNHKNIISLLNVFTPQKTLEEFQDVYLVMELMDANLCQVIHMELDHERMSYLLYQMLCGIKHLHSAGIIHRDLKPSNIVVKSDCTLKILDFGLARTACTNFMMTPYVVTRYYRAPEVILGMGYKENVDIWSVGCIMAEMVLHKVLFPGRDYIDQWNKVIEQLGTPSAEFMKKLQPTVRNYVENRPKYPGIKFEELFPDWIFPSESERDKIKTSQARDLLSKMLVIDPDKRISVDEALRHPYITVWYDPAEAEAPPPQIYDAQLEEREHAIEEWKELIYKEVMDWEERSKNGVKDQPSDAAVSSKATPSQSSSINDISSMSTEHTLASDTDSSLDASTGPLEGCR
# [13] = molecular target: T1, Inhibitor of nuclear factor kappa-B kinase subunit alpha/beta (Mus musculus); assay: Inhibition of IKKalpha/beta in LPS-stimulated mouse RAW264.7 cells assessed as inhibition of IkappaB alpha phosphorylation at 3 uM preincubated with DTT for 30 mins and later incubated with cells for 2 hrs followed by LPS stimulation for 5 mins by immunoblot anlaysis; details: time 155.0 min
# [14] = tested on: RAW264.7; assay: Inhibition of LPS-induced PGE2 production in mouse RAW264.7 cells preincubated for 2 hrs followed by LPS stimulation and measured after 24 hrs by ELISA assay; assay type: functional, cell-based; details: dose 0.75-3 µM, time 26.0 hrs
# [15] = tested on: RAW264.7; assay: Anti-inflammatory activity against LPS-stimulated mouse RAW264.7 cells assessed as decrease in IL-6 production at 0.75 to 3 uM preincubated for 2 hrs followed by LPS stimulation and measured after 24 hrs by ELISA assay; assay type: functional, cell-based; details: dose 0.75-3 µM, time 26.0 hrs
# [16] = tested on: RAW264.7; assay: Inhibition of ERK phosphorylation in LPS-induced mouse RAW264.7 cells at 0.75 to 3 uM preincubated for 2 hrs followed by LPS stimulation and measured after 30 mins by immunoblotting assay; details: dose 0.75-3 µM, time 150.0 min
# [17] = tested on: RAW264.7; assay: Inhibition of LPS-induced COX2 protein expression in mouse RAW264.7 cells at 0.75 to 3 uM preincubated for 2 hrs followed by LPS stimulation for 24 hrs by Western blot analysis; assay type: functional, cell-based; details: dose 0.75-3 µM, time 26.0 hrs
# [18] = molecular target: MAP kinase p38 (Mus musculus) (UniProt P47811+O08911+Q9WUI1+Q9Z1B7); assay: Inhibition of p38 MAPK phosphorylation in LPS-induced mouse RAW264.7 cells at 0.75 to 3 uM preincubated for 2 hrs followed by LPS stimulation and measured after 30 mins by immunoblotting assay; details: dose 0.75-3 µM, time 150.0 min
# [19] = molecular target: T1, Inhibitor of nuclear factor kappa-B kinase subunit alpha/beta (Mus musculus); assay: Inhibition of IKKalpha/beta in LPS-stimulated mouse RAW264.7 cells assessed as decrease in IkappaB degradation at 3 uM preincubated for 2 hrs followed by LPS stimulation for 10 mins by immunoblotting assay; details: time 130.0 min
# [20] = molecular target: Inhibitor of NF-kappa-B kinase alpha/beta (Homo sapiens) (UniProt O14920+O15111); assay: Inhibition of IKKalpha/beta in human HEK293T cells assessed as reduction in thermal stability at 50 uM incubated for 30 mins followed by heating at temperature between 58 to 60 degC for 3 mins by CETSA analysis; assay type: cell-based; details: time 33.0 min
# [21] = tested on: RAW264.7; assay: Anti-inflammatory activity against LPS-stimulated mouse RAW264.7 cells assessed as decrease in TNF-alpha production at 0.75 to 3 uM preincubated for 2 hrs followed by LPS stimulation and measured after 24 hrs by ELISA assay; assay type: functional, cell-based; details: dose 0.75-3 µM, time 26.0 hrs
# [22] = molecular target: T1, Inhibitor of nuclear factor kappa-B kinase subunit alpha/beta (Mus musculus); assay: Inhibition of IKKalpha/beta phosphorylation in LPS-induced mouse RAW264.7 cells incubated for 2 hrs followed by LPS stimulation and measured after 5 mins by immunoblotting assay; details: dose 0.75-3 µM, time 125.0 min
# [23] = tested on: RAW264.7; assay: Anti-inflammatory activity against LPS-stimulated mouse RAW264.7 cells assessed as decrease in IL-1 beta production at 0.75 to 3 uM preincubated for 2 hrs followed by LPS stimulation and measured after 24 hrs by ELISA assay; assay type: functional, cell-based; details: dose 0.75-3 µM, time 26.0 hrs
# [24] = tested on: RAW264.7; assay: Inhibition of LPS-induced NO production in mouse RAW264.7 cells at 3 uM preincubated with DTT for 30 mins and later incubated with cells for 2 hrs followed by LPS stimulation for 24 hrs by Griess-reagent based assay; assay type: functional, cell-based; details: time 1590.0 min
# [25] = tested on: RAW264.7; assay: Inhibition of LPS-induced iNOS protein expression in mouse RAW264.7 cells at 0.75 to 3 uM preincubated for 2 hrs followed by LPS stimulation for 24 hrs by Western blot analysis; assay type: functional, cell-based; details: dose 0.75-3 µM, time 26.0 hrs
smiles,measurement,setting,value
C=C1C(=O)O[C@@H]2/C=C(\CO)CC/C=C(\C=O)[C@H](OC(C)=O)[C@@H](OC(=O)/C(C)=C\C)[C@@H]12,Activity,[1],Non-Toxic
same,IC50,[2],16.5 µM
C=C(C)C(=O)O[C@@H]1C=C(C=O)[C@@H]2CC[C@@](O)(CO)[C@@H]2[C@H]2OC(=O)C(=C)[C@@H]21,Activity,[1],Non-Toxic
same,IC50,[2],15.4 µM
C=C1C(=O)O[C@@H]2C[C@H](CO)CC/C=C(\COC(=O)C(C)C)C[C@@H](O)[C@@H]12,Activity,[1],Non-Toxic
same,IC50,[2],> 20 µM
C=C1C(=O)O[C@@H]2C[C@H]3CC/C=C(/C[C@@H](OC(=O)/C(C)=C/C)[C@@H]12)[C@H](O)OC3,Activity,[1],Non-Toxic
same,IC50,[2],> 20 µM
COc1cc(/C=C/C(=O)CC(=O)/C=C/c2ccc(O)c(OC)c2)ccc1O [CURCUMIN],Activity,[3],Active
same,Activity,[4],Active
same,Activity,[5],Active
same,inhibition,[6],Active
same,inhibition,[7],Active
same,IC50,[2],3.5 µM
C=C1C(=O)O[C@H]2[C@H]1[C@H](OC(=O)/C(C)=C/C)[C@@H](OC)C(=O)[C@@H]1CC[C@@](O)(CO)[C@H]21,Activity,[1],Non-Toxic
same,IC50,[2],> 20 µM
C=C1C(=O)O[C@@H]2/C=C(\CO)CC/C=C(\C=O)[C@H](OC)[C@@H](OC(=O)C(C)C)[C@@H]12,Activity,[1],Non-Toxic
same,IC50,[2],> 20 µM
C=C1C(=O)O[C@@H]2C[C@H](CO)CC/C=C(\CO)C[C@@H](O)[C@@H]12,Activity,[1],Non-Toxic
same,IC50,[2],> 20 µM
C=C(C)C(=O)O[C@@H]1C/C(CO)=C/CC[C@@H](CO)C[C@H]2OC(=O)C(=C)[C@H]12,Activity,[1],Non-Toxic
same,IC50,[2],2.7 µM
C=C1C(=O)O[C@@H]2/C=C(\CO)CC/C=C(\CO)[C@H](OC(C)=O)[C@@H](OC(=O)/C(C)=C\C)[C@@H]12,Activity,[1],Non-Toxic
same,IC50,[2],9.3 µM
C=C1C(=O)O[C@@H]2/C=C(\CO)CCC=C(CO)[C@H](OC(C)=O)[C@@H](OC(=O)C(C)C)[C@@H]12,Activity,[1],Non-Toxic
same,IC50,[2],10.2 µM
C=C1C(=O)O[C@@H]2C[C@H](COC(=O)/C(C)=C\C)CC/C=C(\CO)C[C@@H](O)[C@@H]12,Activity,[8],Active
same,inhibition,[9],Active
same,inhibition,[10],Dose-Dependent Effect
same,inhibition,[11],inactive
same,inhibition,[12],inactive
same,inhibition,[13],inactive
same,inhibition,[14],Dose-Dependent Effect
same,Activity,[15],Active
same,Activity,[1],Non-Toxic
same,inhibition,[16],inactive
same,inhibition,[17],Active
same,inhibition,[18],inactive
same,inhibition,[19],Active
same,inhibition,[20],Active
same,Activity,[21],Active
same,inhibition,[22],Dose-Dependent Effect
same,Activity,[23],Active
same,IC50,[2],1.4 µM
same,inhibition,[2]; time 26.0 hrs,Dose-Dependent Effect
same,inhibition,[24],inactive
same,inhibition,[25],Active
C=C1C(=O)O[C@@H]2/C=C3/CC/C=C(\[C@H](O)OC3)[C@H](O)[C@@H](OC(=O)/C(C)=C/C)[C@@H]12,Activity,[1],Non-Toxic
same,IC50,[2],> 20 µM
C=C1C(=O)O[C@@H]2/C=C3/CC/C=C(\[C@H](O)OC3)[C@H](OC)[C@@H](OC(=O)/C(C)=C\C)[C@@H]12,Activity,[1],Non-Toxic
same,IC50,[2],> 20 µM
C=C1C(=O)O[C@@H]2/C=C(\CO)CC/C=C(\C=O)[C@H](OC)[C@@H](OC(=O)/C(C)=C\C)[C@@H]12,Activity,[1],Non-Toxic
same,IC50,[2],7.9 µM
C=C1C(=O)O[C@@H]2C[C@H](CO)CC/C=C(\CO)C[C@@H](OC(=O)/C(C)=C/C)[C@@H]12,Activity,[1],Non-Toxic
same,IC50,[2],6.9 µM
C=C1C(=O)O[C@@H]2/C=C(\CO)CC/C=C(\C=O)[C@H](O)[C@@H](OC(=O)/C(C)=C\C)[C@@H]12,Activity,[1],Non-Toxic
same,IC50,[2],9.1 µM
C=C(C)C(=O)O[C@H]1[C@H]2C(=C)C(=O)O[C@@H]2/C=C(\CO)CC/C=C(\CO)[C@@H]1OC(C)=O,Activity,[1],Non-Toxic
same,IC50,[2],9.9 µM
C=C1C(=O)O[C@H]2[C@H]1[C@H](OC(=O)/C(C)=C\C)[C@@H](OC)C(=O)[C@@H]1CC[C@@](O)(CO)[C@H]21,Activity,[1],Non-Toxic
same,IC50,[2],> 20 µM
C=C1C(=O)O[C@@H]2C[C@H](CO)CC/C=C(\CO)C[C@@H](OC(=O)/C(C)=C\C)[C@@H]12,Activity,[1],Non-Toxic
same,IC50,[2],2.3 µM
C=C1C(=O)O[C@@H]2/C=C(\CO)CC/C=C(\CO)[C@H](OC(C)=O)[C@@H](OC(=O)/C(C)=C/C)[C@@H]12,Activity,[1],Non-Toxic
same,IC50,[2],10 µM
C=C1C(=O)O[C@@H]2C[C@H](CO)CCC=C(CO)C[C@@H](OC(=O)C(C)C)[C@@H]12,Activity,[1],Non-Toxic
same,IC50,[2],3.4 µM
C=C1C(=O)O[C@@H]2/C=C(\CO)CC/C=C(\C=O)[C@H](OC(C)=O)[C@@H](OC(=O)/C(C)=C/C)[C@@H]12,Activity,[1],Non-Toxic
same,IC50,[2],> 20 µM
C=C1C(=O)O[C@@H]2C[C@H](CO)CC/C=C(\CO)C[C@@H](OC(=O)C=C(C)C)[C@@H]12,Activity,[1],Non-Toxic
same,IC50,[2],5.6 µM
C=C1C(=O)O[C@@H]2/C=C(\C)CC/C=C(\CO)C[C@@H](O)[C@@H]12,Activity,[1],Non-Toxic
same,IC50,[2],> 20 µM
